2 substances from US9023821B2, “Use of MicroRNA for treating diseases associated with a dysfunction of the cilia in multiciliated epithelial cells” (Centre National de la Recherche Scientifique, priority 2009, dated 2015) can be followed below.

For data set [1], the system named is human airway epithelial cells (HAECs). Description: Agilent miRNA chips, miRNA expression at four stages of differentiation of HAECs. Particulars: for Modulation (ratio of the level of intensity of expression in log2 in two stages of differentiation) measured with the Agilent chips, D7 − D0 / Modulation (ratio of the level of intensity of expression in log2 in two stages of differentiation) measured with the Agilent chips, FC − D7 / Modulation (ratio of the level of intensity of expression in log2 in two stages of differentiation) measured with the Agilent chips, WD − D0 / Modulation (ratio of the level of intensity of expression in log2 in two stages of differentiation) measured with the Agilent chips, WD − FC / Level of intensity of expression in log2 measured with the Agilent chips, D0 / Level of intensity of expression in log2 measured with the Agilent chips, D7 / Level of intensity of expression in log2 measured with the Agilent chips, FC / Level of intensity of expression in log2 measured with the Agilent chips, WD: Table VI; for Modulation (ratio of the level of intensity of expression in log2 at two stages of differentiation), FC − D7 / Modulation (ratio of the level of intensity of expression in log2 at two stages of differentiation), WD − FC: Agilent miRNA chips, Table V; for Level of intensity of expression in log2 measured with the Agilent chips, D0: stage D0; for Level of intensity of expression in log2 measured with the Agilent chips, D7: stage D7; for Level of intensity of expression in log2 measured with the Agilent chips, FC: stage FC; for Level of intensity of expression in log2 measured with the Agilent chips, WD: stage WD. Summed up:
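Arrays probing 866 human and 89 human viral miRNAs were used in parallel with sequencing. The same patients' RNA was labelled and hybridized following the manufacturer's protocol.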

In data set [2] the test system is basal cells and pyramidal cells of the airway epithelium. As to the kind of experiment: miRNA expression in sorted basal cells versus pyramidal cells (ciliated + secretory), HTS and Agilent chips. The conditions noted are these: for Modulation of expression of the miRNAs in pyramidal cells (323(−)) relative to basal cells 323(+): HTS and Agilent chips; for Intensity of the level of expression in log2 in pyramidal cells (323(−)): pyramidal cells (ciliated + secretory). More on the design: species or system human. The method in brief: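 Epithelium dissociated from nasal polyps is held 30 min in PBS-BSA-EDTA, then labelled 20 min at 4° C for CD151 and tissue factor. After DAPI staining, live single cells are sorted into marker-double-positive and double-negative fractions, and sort purity and identity are verified. Total RNA then undergoes miRNA profiling on arrays or by sequencing.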

Data set [3] deals with human airway epithelial cells (HAECs). As to the kind of experiment: High-throughput sequencing (HTS) of miRNAs at four stages of differentiation of HAECs. The conditions noted are these: for Modulation (ratio of the level of intensity of expression in log2 in two stages of differentiation) measured by high-throughput sequencing, D7 − D0 / Modulation (ratio of the level of intensity of expression in log2 in two stages of differentiation) measured by high-throughput sequencing, FC − D7 / Modulation (ratio of the level of intensity of expression in log2 in two stages of differentiation) measured by high-throughput sequencing, WD − D0 / Modulation (ratio of the level of intensity of expression in log2 in two stages of differentiation) measured by high-throughput sequencing, WD − FC / Level of intensity of expression in log2 measured by high-throughput sequencing, D0 / Level of intensity of expression in log2 measured by high-throughput sequencing, D7 / Level of intensity of expression in log2 measured by high-throughput sequencing, FC / Level of intensity of expression in log2 measured by high-throughput sequencing, WD: Table VI; for Level of intensity of expression in log2 At the differentiated stage (WD) measured in HTS: healthy human airway epithelial tissue; for Level of intensity of expression in log2 measured by high-throughput sequencing, D0: stage D0; for Level of intensity of expression in log2 measured by high-throughput sequencing, D7: stage D7; for Level of intensity of expression in log2 measured by high-throughput sequencing, FC: stage FC; for Level of intensity of expression in log2 At the differentiated stage (WD) measured in HTS / Level of intensity of expression in log2 measured by high-throughput sequencing, WD: stage WD. The method in brief: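 Small-RNA libraries from differentiating HAECs (ALI-D0 to ALI-WD) were built by ligation-based SOLiD chemistry, size-selected and sequenced. Strand counts were normalized per million reads, converted to percentage abundance, and filtered on adjusted P-value below 0.05.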

As to “hsa-miR-148a: human miRNA, SEQ ID No. 7 (UCAGUGCACUACAGAACUUUGU; expressed or natural sequence; listed as Homo sapiens)”, in data set [1], the “Modulation (ratio of the level of intensity of expression in log2 in two stages of differentiation) measured with the Agilent chips, D7 − D0” value is 2.06 log2; the “Modulation (ratio of the level of intensity of expression in log2 at two stages of differentiation), FC − D7” value is −0.50 log2; the “Modulation (ratio of the level of intensity of expression in log2 in two stages of differentiation) measured with the Agilent chips, FC − D7” value is −0.50 log2; the “Modulation (ratio of the level of intensity of expression in log2 in two stages of differentiation) measured with the Agilent chips, WD − D0” value came to 1.60 log2. Further, in data set [1], the “Modulation (ratio of the level of intensity of expression in log2 at two stages of differentiation), WD − FC” value came out at 0.04 log2; the “Modulation (ratio of the level of intensity of expression in log2 in two stages of differentiation) measured with the Agilent chips, WD − FC” value is listed as 0.04 log2; the “Level of intensity of expression in log2 measured with the Agilent chips, D0” value is recorded as 7.35 log2; the “Level of intensity of expression in log2 measured with the Agilent chips, D7” value is on record as 9.41 log2. For the same substance, in data set [1], the “Level of intensity of expression in log2 measured with the Agilent chips, FC” value was 8.91 log2 and the “Level of intensity of expression in log2 measured with the Agilent chips, WD” value is 8.95 log2. In data set [2], the “Modulation of expression of the miRNAs in pyramidal cells (323(−)) relative to basal cells 323(+)” value is −1.76, the “Intensity of the level of expression in log2 in basal cells (323(+))” value was 7.14 log2 and the “Intensity of the level of expression in log2 in pyramidal cells (323(−))” value amounted to 5.39 log2. For the same substance, in data set [3], the “Modulation (ratio of the level of intensity of expression in log2 in two stages of differentiation) measured by high-throughput sequencing, D7 − D0” value was 1.31 log2; the “Modulation (ratio of the level of intensity of expression in log2 in two stages of differentiation) measured by high-throughput sequencing, FC − D7” value is recorded as −0.28 log2; the “Modulation (ratio of the level of intensity of expression in log2 in two stages of differentiation) measured by high-throughput sequencing, WD − D0” value came to 1.93 log2; the “Modulation (ratio of the level of intensity of expression in log2 in two stages of differentiation) measured by high-throughput sequencing, WD − FC” value is 0.91 log2. Also, in data set [3], the “Level of intensity of expression in log2 At the differentiated stage (WD) measured in HTS” value amounted to 8.97 log2; the “Level of intensity of expression in log2 measured by high-throughput sequencing, D0” value is 7.04 log2; the “Level of intensity of expression in log2 measured by high-throughput sequencing, D7” value is recorded as 8.34 log2; the “Level of intensity of expression in log2 measured by high-throughput sequencing, FC” value worked out at 8.06 log2. Besides, the “Level of intensity of expression in log2 measured by high-throughput sequencing, WD” value in data set [3] was found to be 8.97 log2.
As to “hsa-miR-151-5p: human miRNA, SEQ ID No. 8 (UCGAGGAGCUCACAGUCUAGU; expressed or natural sequence; listed as Homo sapiens)”, in data set [1], the “Modulation (ratio of the level of intensity of expression in log2 in two stages of differentiation) measured with the Agilent chips, D7 − D0” value was determined as 1.83 log2; the “Modulation (ratio of the level of intensity of expression in log2 at two stages of differentiation), FC − D7” value was −0.37 log2; the “Modulation (ratio of the level of intensity of expression in log2 in two stages of differentiation) measured with the Agilent chips, FC − D7” value was −0.37 log2; the “Modulation (ratio of the level of intensity of expression in log2 in two stages of differentiation) measured with the Agilent chips, WD − D0” value stood at 1.46 log2. In data set [1], the “Modulation (ratio of the level of intensity of expression in log2 at two stages of differentiation), WD − FC” value was 0.00 log2; the “Modulation (ratio of the level of intensity of expression in log2 in two stages of differentiation) measured with the Agilent chips, WD − FC” value was found to be 0.00 log2; the “Level of intensity of expression in log2 measured with the Agilent chips, D0” value stood at 6.71 log2; the “Level of intensity of expression in log2 measured with the Agilent chips, D7” value is recorded as 8.54 log2. Moreover, in data set [1], the “Level of intensity of expression in log2 measured with the Agilent chips, FC” value worked out at 8.17 log2 and the “Level of intensity of expression in log2 measured with the Agilent chips, WD” value amounted to 8.17 log2. In data set [2], the “Modulation of expression of the miRNAs in pyramidal cells (323(−)) relative to basal cells 323(+)” value is recorded as −0.73, the “Intensity of the level of expression in log2 in basal cells (323(+))” value is recorded as 7.24 log2 and the “Intensity of the level of expression in log2 in pyramidal cells (323(−))” value stood at 6.51 log2. Also, in data set [3], the “Modulation (ratio of the level of intensity of expression in log2 in two stages of differentiation) measured by high-throughput sequencing, D7 − D0” value amounted to 1.13 log2; the “Modulation (ratio of the level of intensity of expression in log2 in two stages of differentiation) measured by high-throughput sequencing, FC − D7” value was −0.02 log2; the “Modulation (ratio of the level of intensity of expression in log2 in two stages of differentiation) measured by high-throughput sequencing, WD − D0” value was found to be 1.02 log2; the “Modulation (ratio of the level of intensity of expression in log2 in two stages of differentiation) measured by high-throughput sequencing, WD − FC” value is reported as −0.09 log2. Besides, in data set [3], the “Level of intensity of expression in log2 At the differentiated stage (WD) measured in HTS” value came to 10.22 log2; the “Level of intensity of expression in log2 measured by high-throughput sequencing, D0” value came to 9.20 log2; the “Level of intensity of expression in log2 measured by high-throughput sequencing, D7” value is recorded as 10.33 log2; the “Level of intensity of expression in log2 measured by high-throughput sequencing, FC” value is 10.31 log2. In addition, the “Level of intensity of expression in log2 measured by high-throughput sequencing, WD” value in data set [3] was 10.22 log2.
